Activity calls are given as the source filed them.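 The calls were made as follows: active = PP2A blockers whose half-maximal inhibitory concentration IC50 falls below 50 µM; inactive = IC50 at or above 50 µM.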
Target: Serine/threonine-protein phosphatase 2A catalytic subunit alpha isoform (Bos taurus) (UniProt P67774)
Test: dose-dependent inhibition of bovine PP2A – biochemical, bovine brain PP2A, 32P-phosphohistone, dose response, round 5, selectivity assay for PP5 inhibitor project, late-stage follow-up (AID 624447)
Settings: purified bovine PP2A, 32P-phosphohistone dephosphorylation, scintillation

Serine/threonine-protein phosphatase 2A catalytic subunit alpha isoform (Bos taurus), sequence (P67774 whole entry, looked up, canonical isoform): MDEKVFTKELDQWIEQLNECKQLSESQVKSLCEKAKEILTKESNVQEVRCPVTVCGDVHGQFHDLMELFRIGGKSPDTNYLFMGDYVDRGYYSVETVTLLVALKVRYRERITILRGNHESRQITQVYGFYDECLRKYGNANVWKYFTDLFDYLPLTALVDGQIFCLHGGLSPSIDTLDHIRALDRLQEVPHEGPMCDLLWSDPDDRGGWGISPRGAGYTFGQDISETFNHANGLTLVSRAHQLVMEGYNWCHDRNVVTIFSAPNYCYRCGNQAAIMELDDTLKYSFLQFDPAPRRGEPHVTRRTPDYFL

- IC50: inactive
SMILES: CC(C)Oc1ccccc1-c1n[nH]nc1C(=O)O

Reference: PubChem BioAssay AID624447 (The Scripps Research Institute Molecular Screening Center, 2012)
